# Patent publication US11401253B2, “16-methyl-oxacyclohexadecan-2-one and 16-methyl-azacyclohexadecan-2-one derivatives as antimicrobial agents” (THE UNIVERSITY OF MONTANA, priority 2017, dated 2022)
# Where “and” joins values, the source holds several entries; their conditions need not be identical. Identical values can stand only once. Entries after “also recorded” stand apart in the source; their conditions may differ.
# Columns and labels:
# [1] = tested on: Staphylococcus aureus (13709); experiment: Antibiotic testing (MIC), S. aureus 13709; assay type: cell-based; conditions: growth inhibition ≥90% relative to drug-free controls, read-out: minimum inhibitory concentration, Staphylococcus aureus (13709)
# Streptococcus pyogenes = experiment: Antibiotic testing (MIC), Streptococcus pyogenes; assay type: cell-based; conditions: growth inhibition ≥90%, read-out: minimum inhibitory concentration, Streptococcus pyogenes
# Candida glabrata = experiment: Antibiotic testing (MIC), Candida glabrata; assay type: cell-based; conditions: Nakaseomyces glabratus; growth inhibition ≥90%; read-out: minimum inhibitory concentration, Candida glabrata
# Bacillus subtilis = experiment: Antibiotic testing (MIC), Bacillus subtilis; assay type: cell-based; conditions: growth inhibition ≥90%, read-out: minimum inhibitory concentration, Bacillus subtilis
# C. albicans = experiment: Antibiotic testing (MIC), C. albicans; assay type: cell-based; conditions: Candida albicans; growth inhibition ≥90%; read-out: minimum inhibitory concentration, C. albicans
# B. anthracis = experiment: microbe, parasite or virus in culture; assay type: cell-based; conditions: Bacillus anthracis, read-out: minimum inhibitory concentration, B. anthracis
# Enterococcus faecalis = experiment: Antibiotic testing (MIC), Enterococcus faecalis; assay type: cell-based; conditions: growth inhibition ≥90%, read-out: minimum inhibitory concentration, Enterococcus faecalis
# S. aureus CAIRD116 = experiment: Antibiotic testing, methicillin-resistant S. aureus CAIRD116; assay type: cell-based; conditions: Staphylococcus aureus, CAIRD116; methicillin-resistant strain
# Text: (§1) Both the methyl ester and the diacetate derivatives of BPL 76 slightly less but still very strong activity against the same four MRSA strains (Table 11). The activities of compounds BPL 76 and BPL 81 were compared to several known antibiotics against three methicillin-resistant strains of S. aureus [FIG. 6, comparative data provided by Hartford Hospital, Center for Anti-Infective Research and Development (CAIRD)].
# S. aureus CAIRD142 = experiment: Antibiotic testing, methicillin-resistant S. aureus CAIRD142; assay type: cell-based; conditions: Staphylococcus aureus, CAIRD142; methicillin-resistant strain
# Text: as §1
# S. aureus CAIRD148 = experiment: Antibiotic testing, methicillin-resistant S. aureus CAIRD148; assay type: cell-based; conditions: Staphylococcus aureus, CAIRD148; methicillin-resistant strain
# Text: as §1
# K. pneumoniae (10031) = experiment: Antibiotic testing (MIC), gram negative K. pneumoniae; assay type: cell-based
# Protocol: (§2) None of this collection of compounds were active against Gram-negative bacteria
# (§3) Additionally, BPL 76 and derivatives were tested against a panel of gram negative bacteria including K. pneumonia, P. aeruginosa and E. coli (Table 12).
# P. aeruginosa = experiment: Antibiotic testing (MIC), gram negative P. aeruginosa; assay type: cell-based; conditions: Pseudomonas aeruginosa; read-out: MIC, P. aeruginosa
# Protocol: as §2, §3
# E. coli (25922) = experiment: Antibiotic testing (MIC), gram negative E. coli; assay type: cell-based
# Protocol: as §2, §3
# [2] = tested on: non-replicating persistence Mycobacterium tuberculosis (NRP-TB); experiment: Low oxygen recovery assay (LORA), non-replicating persistence Mtb; assay type: cell-based; conditions: non-replicating persistence, hypoxic conditions
# Vero cell = experiment: Cytotoxicity (MTS), Vero cells; assay type: cell-based, monkey; conditions: Primates, 72 hours exposure
# HepG2 = experiment: Cytotoxicity (MTS), HepG2 cells; assay type: cell-based; conditions: Homo sapiens, 72 hours exposure
# J774 = experiment: Cytotoxicity (MTS), J774 cells; assay type: cell-based, murine; conditions: Mus musculus, 72 hours exposure
# [3] = tested on: primary human peripheral blood mononuclear cells (PBMCs); experiment: Cell death in primary PBMCs; assay type: cell-based; conditions: highest concentration tested, 500 μg/ml
# Protocol: Additionally the BPL76 compound was tested against primary human peripheral blood mononuclear cells (PBMCs) and induced very little cell death, with only up to 60% death induced at the highest concentration tested, 500 μg/ml (not shown).
# GFP synthesis = experiment: Cell-free translation assay with GFP reporter; assay type: biochemical; conditions: 50 μM and 250 μM, 37° C., readings for 2 hr
# Protocol: Further assessment of the effect of BPL76 on protein translation was done using a cell-free translation assay. The plasmid pY71-sfGFP^55 (5 ng) was translated in the PUREexpress in vitro protein synthesis system (New England Biolabs). The final concentrations of erythromycin, josamycin and tylosin in the translation reactions were 50 μM. The reactions were incubated at 37° C. and fluorescence readings (excitation: 488 nm, emission, 520 nm) were taken every 20 min for 2 hr.
# Gram-positive bacteria = experiment: Antibiotic panel, Gram-positive bacteria; assay type: cell-based; conditions: 1 μM-1 mM/well
# Text: as §2
# [4] = Bactericidal activity (therapeutic index statement); assay type: cell-based
# [5] = tested on: Vero, HepG2 and J774 cells; experiment: Cytotoxicity, mammalian cell lines (summary statement); assay type: cell-based
# Protocol: Cytotoxicity for Vero, HepG2 and J774 cells were determined following 72 hours exposure to BPL76 and analogs. Cell viability was assessed on the basis of cellular conversion of MTS dye into a soluble formazan product using the Promega CellTiter 96 Aqueous Non-Radioactive Cell Proliferation Assay. After incubation at 37° C. for 72 h, medium was removed and monolayers were washed twice with 100 μl of warm Hanks' balanced salt solution (HBSS). One hundred microliters of warm medium and 20 μl of freshly made MTS-PMS [3-(4,5-dimethylthiazol-2-yl)-5-(3-carboxymethoxyphenyl)-2-(4-sulfophenyl)-2H-tetrazolium and […]](100:20) (Promega) were added to each well, plates were incubated for 3 h, and absorbance was determined at 490 nm. Viability was assessed on the basis of cellular conversion of MTS dye into a soluble formazan product using the Promega CellTiter 96 Aqueous Non-Radioactive Cell Proliferation Assay as described in Falzari K, Zhu Z, Pan D, Liu H, Hongmanee P, et al. (2005). In vitro and in vivo activities of macrolide derivatives against Mycobacterium tuberculosis were determined as described in Ekins, S, Reynolds, R C, Franzblau, S G, et al. Enhancing Hit Identification in Mycobacterium tuberculosis Drug Discovery Using Validated Dual-Event Bayesian Models PLOS ONE (2013) 8:5, e63240. […]
# [6] = tested on: Mycobacterium tuberculosis
# [7] = tested on: Mycobacterium tuberculosis; experiment: microbe, parasite or virus in culture; conditions: read-out: MIC, MABA
structure (smiles),measurement,setting,value
"C[C@@H]1CCCCCCCCC[C@H](O)C(=O)C[C@@H](SC[C@@H](O)C(=O)O)C(=O)O1 [BPL 76, (S)-2-hydroxy-3-(((3R,6S,16R)-6-hydroxy-16-methyl-2,5-dioxooxacyclohexadecan-3-yl)thio)propanoic acid]",MIC,[1],1 µg/mL
same,MIC,Streptococcus pyogenes,3 µg/mL
same,MIC,Candida glabrata,6 µg/mL
same,MIC,Bacillus subtilis,13 µg/mL
same,MIC,C. albicans,26 µg/mL
same,MIC,B. anthracis,3 µg/mL
same,MIC,Enterococcus faecalis,13 µg/mL
same,MIC,S. aureus CAIRD116,1 µg/mL
same,MIC,S. aureus CAIRD142,2 µg/mL
same,MIC,S. aureus CAIRD148,1 µg/mL
same,activity against K. pneumonia (in words),K. pneumoniae (10031),weakly active
same,MIC,"K. pneumoniae (10031); Klebsiella pneumoniae, read-out: MIC, K. pneumoniae (10031)",1000 µM and 405 µg/mL
same,MIC,P. aeruginosa,> 1000 µM
same,activity against E. coli (in words),E. coli (25922),weakly active
same,MIC,"E. coli (25922); Escherichia coli, read-out: MIC, E. coli (25922)",1000 µM and 405 µg/mL
same,MIC,"[2]; Mycobacterium tuberculosis, read-out: MIC, LORA",24 µg/mL
same,"MIC, LORA",[2],~24 µg/mL
same,IC50,Vero cell,61.5 µg/mL
same,IC50,HepG2,64.8 µg/mL
same,IC50,J774,16.8 µg/mL
same,cell death induced in PBMCs,[3],up to 60%
same,effect on GFP synthesis and corresponding fluorescence,GFP synthesis,no effect at either concentration; also recorded: lack of inhibition
same,activity against Gram-positive bacteria,Gram-positive bacteria,strongest activity
same,efficacious concentration to induce bactericidal activity,[4],~1 µg/mL
same,mammalian toxicity concentration,[5],~60 µg/mL
same,"MIC, MABA",[6],~25 µg/mL
same,fold less active against Mtb than against MRSA,[6],25 fold
same,times less potent than rifampicin against Mtb,[6],100 ×
same,MIC,[7],25 µg/mL
